# Where “and” joins values, the source holds several entries; their conditions need not be identical. Equal entries are not always repeated. Where two headings read alike, the source gives them in different places.
# Key:
# GST-Bcl-B [1] = biological target: T1, GST-Bcl-B (Homo sapiens, UniProt Q9HD36); test: Bcl-B/FITC-TR3-r8 fluorescence polarization competition (displacement) assay, HTS and dose-response; conditions: for Bcl-B H Coefficient: Hill coefficient of Bcl-B dose-response curve
# T1 sequence (Q9HD36 1-182 limits assumed): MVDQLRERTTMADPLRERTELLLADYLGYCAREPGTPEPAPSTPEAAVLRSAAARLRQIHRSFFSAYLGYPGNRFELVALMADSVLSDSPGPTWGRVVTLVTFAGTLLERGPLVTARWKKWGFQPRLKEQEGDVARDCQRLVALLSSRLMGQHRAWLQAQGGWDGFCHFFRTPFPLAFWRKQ
# GST-Bcl-B [2] = biological target: T1, GST-Bcl-B; test: biochemical
# [3] = Table 7, NCI Mechanistic library, Binding Assay, FP, Concentration 0.02 uM
# [4] = read-out: Result Value (Result Type % Inhibition), BCL-b/TR3
# [5] = Table 8, NCI Structural library, Binding Assay, FP, Concentration 0.02 uM
# [6] = LOPAC1280 library primary screen
# [7] = LOPAC1280 library, fluorescence intensity normalized to plate negative controls
# [8] = read-out: Result Value (% Inhibition)
# [9] = read-out: Result Value (% Inhibition), LOPAC1280 (Sigma-Aldrich) library, BCL-b/TR3 Binding Assay, FP, Concentration 0.02 uM, % competition
SMILES,IC50 (GST-Bcl-B [2]),Bcl-B H Coefficient (GST-Bcl-B [1]),Is Hit (GST-Bcl-B [1]; [6]),F Ratio (GST-Bcl-B [1]; [7]),inhibition at 0.02 µM (GST-Bcl-B [1]; [8]) [%],also measured
COc1ccc2c(c1)-c1nn(CCCN(C)C)c3ccc([N+](=O)[O-])c(c13)N2 [Compound 627168],,,,,,"F Ratio (GST-Bcl-B [1]; [3]): 0.1807; Is Hit (GST-Bcl-B [1]; [3]): Yes; inhibition at 0.02 µM (GST-Bcl-B [1]; read-out: Result Value (Result Type % Inhibition), BCL-b/TR3, Table 7, NCI Mechanistic library, Binding Assay, FP, Concentration 0.02 uM): 64.4%"
O=S(=O)(O)c1cc(/N=N/c2cc(S(=O)(=O)O)c3cccnc3c2O)ccc1/C=C/c1ccc(/N=N/c2cc(S(=O)(=O)O)c3cccnc3c2O)cc1S(=O)(=O)O [Compound 635352],,,,,,F Ratio (GST-Bcl-B [1]; [3]): 0.04471; Is Hit (GST-Bcl-B [1]; [3]): Yes; inhibition at 0.02 µM (GST-Bcl-B [1]; [4]): 94%
O=C1C=C(N2CCNCC2)C(=O)c2c(O)ccc(O)c21 [Compound 658144],,,,,,Is Hit (GST-Bcl-B [1]; [3]): Yes
O=C1C(Br)=C(N2CCN(CCOCCO)CC2)C(=O)c2c(O)ccc(O)c21 [Compound 659999],,,,,,Is Hit (GST-Bcl-B [1]; [3]): Yes
O=C1C=C(NCCc2cc(Br)c(O)c(Br)c2)C(=O)c2ncccc21 [Compound 668394],,,,,,F Ratio (GST-Bcl-B [1]; [5]): 0.1777; Is Hit (GST-Bcl-B [1]; [5]): Yes; inhibition at 0.02 µM (GST-Bcl-B [1]; [4]): 81.8%
CN(C)CCc1c2c(nc3ccccc13)C(=O)c1cccnc1C2=O [Compound 680734],,,,,,F Ratio (GST-Bcl-B [1]; [3]): 0.1433; Is Hit (GST-Bcl-B [1]; [3]): Yes; inhibition at 0.02 µM (GST-Bcl-B [1]; [4]): 82.6%
CN(C)c1ccc(/C=c2\c3n(c4ccccc24)N(C)C(c2ccc(Cl)cc2)C=3)cc1.O=S(=O)(O)C(F)(F)F (centres unmarked) [Compound 699479],,,,,,F Ratio (GST-Bcl-B [1]; [3]): 0.1793; Is Hit (GST-Bcl-B [1]; [3]): Yes; inhibition at 0.02 µM (GST-Bcl-B [1]; [4]): 60.6%
Cc1ccc(C(=O)c2coc3c2C(=O)C(=O)C(Cl)=C3Cl)cc1 [Compound 5169132],6.17 µM,1.432,,,,
O=C1C=CC(=O)C(/C(=C/NCc2ccccc2)[N+](=O)[O-])=C1 [Compound 5261378],5.7 µM,3.214,,,,
Nc1ccc(S(=O)(=O)O)c2cccc(O)c12 [Compound 5265894],1.05 µM,2.075,,,,
CN(C)c1ccc(NC(=O)/C=C\C(=O)O)cc1 [Compound 5374579],20.4 µM,2.167,,,,
O=C1C=CC2=C3Oc4c(ccc5cc(O)ccc45)C(c4ccccc4C(=O)O)C3C=CC2=C1 (centres unmarked) [Compound 5466725],1.68 µM,3.03,,,,
Cc1ccc2oc3cc(NCCCN(C)C)c4c(=O)c5ccccc5c(=O)c4c3[nH]c2c1 [Compound 5468863],0.673 µM,1.907,,,,
O=C(O)c1ccc2c(c1)C1C=CCC1C(c1cccc([N+](=O)[O-])c1)N2 (centres unmarked) [Compound 5475298],1.75 µM,1.336,,,,
COc1ccc(OC)c(C=NNC(=O)C2C=CN(CC(=O)c3ccccc3)C=C2)c1 [Compound 5483976],1.35 µM and 1.34 µM,2.127,,,,
C(=N\c1ccc(/N=C/c2ccccn2)cc1)/c1ccccc1 [Compound 5491977],4.4 µM and 4.39 µM,1.819,,,,
COc1ccc(Nc2ccc(N)cc2)cc1 [Compound 5529774],7.22 µM,2.718,,,,

SMILES,IC50 (GST-Bcl-B [2]),Bcl-B H Coefficient (GST-Bcl-B [1]),Is Hit (GST-Bcl-B [1]; [6]),F Ratio (GST-Bcl-B [1]; [7]),inhibition at 0.02 µM (GST-Bcl-B [1]; [8]) [%],also measured
COc1ccccc1NC(=O)C1=C(C)NC(SCC(=O)c2ccc(Br)cc2)=C(C#N)C1c1ccco1 (centres unmarked) [Compound 5570547],6.24 µM,18.57,,,,
C=CCN1C(=O)NC(=O)/C(=C/c2cccn2-c2cccc([N+](=O)[O-])c2)C1=O [Compound 5987504],,1.773,,,,IC50 (GST-Bcl-B [1]; Bcl-B IC50 (g/L)): 5.59 µM; IC50 (GST-Bcl-B [1]; Bcl-B IC50 (uM)): 5.36 µM
O=[N+]([O-])c1cc(O)c(O)c([N+](=O)[O-])c1 [Compound D-131],,,Yes,0.1464,,"Result Value (% Inhibition) (GST-Bcl-B [1]; LOPAC1280 (Sigma-Aldrich) library, BCL-b/TR3 Binding Assay, FP, Concentration 0.02 uM, % competition): 68.095%"
O=C(c1cc(O)c(O)c([N+](=O)[O-])c1)c1ccccc1F [Compound R-108],,,Yes,0.1164,69.6,
Nc1c(S(=O)(=O)O)cc(Nc2ccc(Nc3nc(Cl)nc(Nc4ccc(S(=O)(=O)O)cc4)n3)c(S(=O)(=O)O)c2)c2c1C(=O)c1ccccc1C2=O [Compound R-115],,,Yes,0.1652,80.8,
CN(N=O)c1cc(O)ccc1O [D 8065],,,Yes,0.1152,,inhibition at 0.02 µM (GST-Bcl-B [1]; [9]): 95.3%
NC(Cc1cc(O)c(O)cc1O)C(=O)O (centres unmarked) [H 2380],,,,,136,F Ratio (GST-Bcl-B [1]): 0.06315; Is Hit (GST-Bcl-B [1]): Yes
O=c1cc(O)cc(/C=C/c2ccc(O)c(O)c2)o1 [H 5257],,,Yes,0.0971,77,
O=C1c2c(O)ccc(O)c2C(=O)c2c(NCCNCCO)ccc(NCCNCCO)c21 [M 6545],,,Yes,1.1021,148,
O=c1c(O)c(-c2cc(O)c(O)c(O)c2)oc2cc(O)cc(O)c12 [M 6750],,,Yes,0.1247,61,
CN(N=O)c1ccc(O)c(O)c1 [M 9440],,,Yes,0.08483,,inhibition at 0.02 µM (GST-Bcl-B [1]; [9]): 121%
O=C(Nc1cc(C(=O)Nc2ccc(S(=O)(=O)O)cc2S(=O)(=O)O)cc(C(=O)Nc2ccc(S(=O)(=O)O)cc2S(=O)(=O)O)c1)Nc1cc(C(=O)Nc2ccc(S(=O)(=O)O)cc2S(=O)(=O)O)cc(C(=O)Nc2ccc(S(=O)(=O)O)cc2S(=O)(=O)O)c1 [N 4784],,,Yes,1.0398,64.7,
C[C@H](Cc1ccc(O)c(O)c1)[C@@H](C)Cc1ccc(O)c(O)c1 [N 5023],,,Yes,0.09564,67.5,
Cc1nc(/N=N\c2cc(S(=O)(=O)O)c3cc([N+](=O)[O-])cc(S(=O)(=O)O)c3c2)c(COP(=O)(O)O)c(C=O)c1O [P 2738],,,Yes,0.2636,66.6,
O=c1c(O)c(-c2ccc(O)c(O)c2)oc2cc(O)cc(O)c12 [Q 0125],,,Yes,0.1424,52,
[NH3+][Ru]([NH3+])([NH3+])([NH3+])([NH3+])[O][Ru]([NH3+])([NH3+])([NH3+])([NH3+])[O][Ru]([NH3+])([NH3+])([NH3+])([NH3+])[NH3+] [R 2751],,,Yes,1.1267,,
N#C/C(=C\c1ccc(O)c(O)c1)C(=O)c1ccc(O)c(O)c1 [T 7822],,,Yes,0.1036,61.7,

# From patent US20090118135A1, “METHODS AND COMPOUNDS FOR REGULATING APOPTOSIS” (The Burnham Institute, priority 2007, published 2009)
